Data on two compounds can be found in patent US11530132B2, “Composition comprising porous silica particles carrying a cell fate modulating factor” (LEMONEX INC., priority 2017, dated 2022).

Test [1] has as its system nerve cells or fibroblasts. Description: Transfection rate of factors carried in DDV. In kind it is cell-based. As to conditions: factor carried in DDV.
Test [2] has as its system nerve cells or fibroblasts. The test is described as follows: Forward differentiation rate with factors carried in DDV. To be noted: factor carried in DDV. In kind it is cell-based.
Source text: (§1) This process was repeated 3 times.
as §1

Test [3] deals with mES cells. Description: Neural induction of mES cells, quantitative image analysis (Tuj1-positive cells, axon length). In kind it is cell-based, mouse. To be noted: after neural induction; FIG. 32. As for the experimental part:
Neural induction of mES cells was conducted by adding RA or RA/AMSN19 complex. In particular, 10^−6M RA or 25 μg of RA/AMSN19 (corresponding to 3×10^−6M including RA) was used for treatment of mES cells in a complete mES medium for 2 days. A non-induction group was cultured as a negative control group. After 2 days, the medium was replaced with a new nerve cell culture medium, N2B27. The medium was replaced on alternate days.
For quantitative analysis, 5 representative fluorescent images were obtained from different immunostain samples, respectively. The images were analyzed by an ImageJ program. For Tuj1-positive cell analysis, the number of florescent cells expressing Tuj1 more than a critical value was measured from each image, followed by calculating a ratio of the measured number to a total number of nuclei. For measurement of a length of axon, axons contained in 50 cells in each sample were analyzed by a line measurement device. In consideration of 100 representative axons, an average value was calculated.

Turning to `Nc1ncn([C@@H]2O[C@H](CO)[C@@H](O)[C@H]2O)c(=O)n1` [5-azacytidine], the Transfection rate in test [1] is given as 50-95%. Also, the Forward differentiation rate in test [2] is reported as 5-30%.
`CC1=C(/C=C/C(C)=C/C=C/C(C)=C/C(=O)O)C(C)(C)CCC1` [RA, retinoic acid]: the “Cell conversion efficiency (rate of Tuj1 positive cells among entire cells survived)” value in test [3] is “about 30%”.
